In patent US5462956A, “Epibatidine and derivatives, compositions and methods of treating pain” (priority 1994, dated 1995):

Legend:
NIH mice = experiment: hot plate analgesia assay (Eddy and Leimbach), with and without naloxone; format: in vivo, mouse; settings: for ED50 Dose for Hot Plate Analgesia: mice, sc, hot plate 55° C., reaction times over 60 min
Procedure: 107, 385-393, 1953]. NIH mice were dropped onto a hot plate maintained at 55° C. and the reaction time was determined. The criterion for a reaction was kicking the hind leg, attempting to jump out, or shaking a foot and turning and licking it. Reaction time for each mouse was determined at least twice before and 5, 10, 20, 30, 45 and 60 min after administration of compound.

mice = tested on: mice
Procedure: The Straub-tail reaction was assayed by a standard procedure [Aceto, M. D., et. al., Brit. J. Pharmacol. 36, 225-239, 1969].

[1] = Nilsen assay of analgetic activity; settings: in vivo
opioid-binding sites = opioid-binding sites (Cavia porcellus, UniProt A0ACM8Q262); settings: 1 nM [3H]dihydromorphine, guinea pig cerebral tissue
Chain of opioid-binding sites (A0ACM8Q262 1-400): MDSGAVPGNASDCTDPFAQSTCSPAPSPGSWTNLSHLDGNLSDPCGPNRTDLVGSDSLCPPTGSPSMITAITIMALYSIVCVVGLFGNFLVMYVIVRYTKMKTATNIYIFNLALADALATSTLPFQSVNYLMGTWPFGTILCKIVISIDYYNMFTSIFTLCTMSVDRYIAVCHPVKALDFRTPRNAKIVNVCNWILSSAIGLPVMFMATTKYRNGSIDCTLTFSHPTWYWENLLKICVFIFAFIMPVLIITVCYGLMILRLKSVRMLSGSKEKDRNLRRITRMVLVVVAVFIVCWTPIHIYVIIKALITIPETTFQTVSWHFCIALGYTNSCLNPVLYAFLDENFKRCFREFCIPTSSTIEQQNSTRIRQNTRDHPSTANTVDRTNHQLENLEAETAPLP
Procedure: Briefly, cerebral tissue from brains of male Hartley guinea pigs was homogenized in 10 volumes of ice-cold 50 mM Tris-HCl buffer (pH 7.4) for 20 sec. in a Polytron homogenizer at 3000 rpm. After centrifugation at 18,000 G for 10 min., the pellet was reconstructed to the same volume in Tris buffer. […] Samples were chilled to 0° and filtered through glass fiber filters, followed by two washes with 5 ml of ice cold Tris buffer. Radioactivity retained on the filter was determined with a liquid scintillation counter. Nonspecific binding of [^3 H]dihydromorphine was determined in the presence of 100 nM naloxone.

[2] = tested on: dihydromorphine binding sites; experiment: binding to dihydromorphine binding sites in rodent brain membranes (background statement)

Compound | ED50 Dose for Hot Plate Analgesia (NIH mice) [mg/kg] | dose required for a greater than 45° arch of tail (Straub-tail reaction) (mice; mouse, in vivo, sc) [mg/kg] | antagonism of the analgesia by the opioid antagonist naloxone (background statement) (NIH mice; naloxone) | Effect of Naloxone (on analgesia) (NIH mice; naloxone 5 mg/kg sc) | potency relative to morphine in a standard analgetic test (NIH mice; subcutaneously to mice) | Analgetic activity in the Nilsen assay [1] | Straub-tail reaction elicited by isolated alkaloid (mice; column fractions 108-111, mice) | Straub-tail response (mice; mice, at higher doses for epibatidine (background statement)) | dose that elicited a comparable Straub-tail reaction (mice; mouse, in vivo) [mg/kg] | effect of naloxone on the Straub-tail reaction (mice; mouse, in vivo) | blockade of the Straub-tail response by naloxone (background statement) (mice; opioid-antagonist naloxone) | activity at opioid-binding sites in words (opioid-binding sites) | IC50 (opioid-binding sites; 30 min, 25°, pH 7.4) [µM] | affinity for dihydromorphine binding sites [2]
CN1CC[C@]23c4c5ccc(O)c4O[C@H]2[C@@H](O)C=C[C@H]3[C@H]1C5 [Morphine, reference compound] | 1 | 10 | – | – | – | – | – | – | – | – | – | – | – | –
Clc1ccc(C2CC3CCC2N3)cn1 (stereo not drawn) [Epibatidine] | 0.005 | – | not antagonized | No effect | two-hundred fold more potent than morphine | Analgetic activity also was apparent | elicited the Straub-tail reaction in mice | marked Straub-tail response | 0.02 | only slightly reduced the Straub-tail reaction | not blocked | nearly inactive | 8.8 | very low affinity
